The values that follow come from patent publication US11477952B2, “Endophytic microbial seed treatment formulations and methods related thereto for improved plant performance” (ADVANCED BIOLOGICAL MARKETING, INC., priority 2017, dated 2022).

The assay has as its system seedlings. As to the kind of experiment: Preliminary and greenhouse tests of 1-octen-3-ol on plant growth. The format is in vivo. The text has this:
These endophytic microorganisms frequently are fully symbiotic with plants (Harman, Howell, et al., 2004). These endophytic symbionts have abilities to induce multiple beneficial effects in plants, including induced resistance to diseases and potentially other pests; resistance to abiotic stresses such as drought, salt and flooding; improved efficiency of uses of nitrogen and other plant nutrients; enhancement of seed germination and seedling vigor; and enhanced plant growth and development. There are numerous diverse genera of microbes that induce at least most of these changes in plant performance, including mycorrhizae, plant growth promoting rhizobacteria, and Basidomycetous fungi in the Sebaciles such as Piriformaspora indica. These organisms have an endophytic versus a plant pathogenic life style (Shoresh, Mastouri, et al., 2010) typical of numerous other plant-associated microorganisms. The systemic changes in plant gene expression are presumed to be induced by the production of specific triggering metabolites from these different organisms. […]
Unexpected is the effect of the OMEGA biorational seed treatments that contain the fungal metabolite 1-octen-3-ol, yeast extract and humic acid (Leonardite shale). […] Thus the quantities applied are very small and cannot grow or proliferate on or in plants so their effects were expected to be transitory. […]

The structures appear in SMILES notation.

Regarding `C=CC(O)CCCCC` (centres unmarked) [1-octen-3-ol], the seedling growth result (greenhouse, 200 to 20,000 pL in different formulations, data not shown) is “plant growth promotive effects on seedling growth”. For the same molecule, the plant growth entry (very low concentrations, preliminary work) was “strongly enhances plant growth”.
